System: angiogenesis genes in dermal microvascular endothelial cells
Assay: Real time RT-PCR of angiogenesis gene expression during endothelial tube formation
Format: cell-based
Conditions: 1 μM SM, 24 hours

O=C1C(=Cc2ccccc2)C(NC2CCCCC2)c2ccccc21 (centres unmarked) [compound 150117]
Log2 fold-change of gene expression: 1839: 0.9 | Log2 fold-change of gene expression: 4247: −0.1 | Log2 fold-change of gene expression: 5569: −0.1 | Log2 fold-change of gene expression: 8131: −0.5 | Log2 fold-change of gene expression: 9569: −4.2 | Log2 fold-change of gene expression: 10988: 0.8 | Log2 fold-change of gene expression: 23001: −1.0 | Log2 fold-change of gene expression: 55332: −1.7 | Log2 fold-change of gene expression: 57722: −0.9 | Log2 fold-change of gene expression: 58488: 0.3 | Log2 fold-change of gene expression: 90780: −1.4 | Log2 fold-change of gene expression: 134265: −1.0 | Log2 fold-change of gene expression: AKT1: 1.6 | Log2 fold-change of gene expression: ANGPT1: 1.7 | Log2 fold-change of gene expression: ANGPT2: −1.2 | Log2 fold-change of gene expression: ANGPTL3: 1.8 | Log2 fold-change of gene expression: ANGPTL4: −4.0 | Log2 fold-change of gene expression: ANPEP: −1.7 | Log2 fold-change of gene expression: ANTXR1: −4.2 | Log2 fold-change of gene expression: APOE: −1.0 | Log2 fold-change of gene expression: ARHGEF1: −2.0 | Log2 fold-change of gene expression: Acvrl1: −1.2 | Log2 fold-change of gene expression: Adcy4: −0.5 | Log2 fold-change of gene expression: BAL1: 0.8 | Log2 fold-change of gene expression: BMP1: −0.4 | Log2 fold-change of gene expression: C1orf54: −1.3 | Log2 fold-change of gene expression: CALD1: 1.1 | Log2 fold-change of gene expression: CCL2: 0.9 | Log2 fold-change of gene expression: CCL11: 0.7 | Log2 fold-change of gene expression: CD248: −0.4 | Log2 fold-change of gene expression: CDH5: −1.6 | Log2 fold-change of gene expression: CENTD3: −0.2 | Log2 fold-change of gene expression: CLIC1: 0.0 | Log2 fold-change of gene expression: COL4A3: 2.4 | Log2 fold-change of gene expression: COL18A1: 0.8 | Log2 fold-change of gene expression: COMT: −1.0 | Log2 fold-change of gene expression: CST4: −0.1 | Log2 fold-change of gene expression: CTTNBP2NL: −2.3 | Log2 fold-change of gene expression: CXCL3: 0.8 | Log2 fold-change of gene expression: CXCL5: −3.5 | Log2 fold-change of gene expression: CXCL6: 1.2 | Log2 fold-change of gene expression: CXCL9: 1.2 | Log2 fold-change of gene expression: CXCL10: −1.7 | Log2 fold-change of gene expression: Calcr1: −5.4 | Log2 fold-change of gene expression: Caskin2: −2.7 | Log2 fold-change of gene expression: Ccbp2: 0.4 | Log2 fold-change of gene expression: Cldn5: 0.1 | Log2 fold-change of gene expression: DGKG: 3.4 | Log2 fold-change of gene expression: DKK3: −3.3 | Log2 fold-change of gene expression: DLL4: 5.5 | Log2 fold-change of gene expression: DUT: −0.2 | Log2 fold-change of gene expression: EFNA1: 0.4 | Log2 fold-change of gene expression: EFNA3: −1.8 | Log2 fold-change of gene expression: EFNB2: 0.4 | Log2 fold-change of gene expression: EGF: −2.3 | Log2 fold-change of gene expression: ENG: −0.1 | Log2 fold-change of gene expression: EPHB4: −1.2 | Log2 fold-change of gene expression: EREG: −2.4 | Log2 fold-change of gene expression: ESAM1: −2.6 | Log2 fold-change of gene expression: EXTL3: 0.0 | Log2 fold-change of gene expression: Egf17: −3.3 | Log2 fold-change of gene expression: Ehd4: −0.6 | Log2 fold-change of gene expression: Entpd1: −8.9 | Log2 fold-change of gene expression: Epas1: 0.4 | Log2 fold-change of gene expression: EphB1: 0.7 | Log2 fold-change of gene expression: Erg: −3.2 | Log2 fold-change of gene expression: FGF1: −3.8 | Log2 fold-change of gene expression: FGF2: 0.0 | Log2 fold-change of gene expression: FGFR3: 1.0 | Log2 fold-change of gene expression: FIGF: 2.4 | Log2 fold-change of gene expression: FLT1: −0.5 | Log2 fold-change of gene expression: Fgd5: −1.2 | Log2 fold-change of gene expression: GPCR124: −2.9 | Log2 fold-change of gene expression: GRRP1: 0.0 | Log2 fold-change of gene expression: Grp116: −3.1 | Log2 fold-change of gene expression: HAND2: 1.5 | Log2 fold-change of gene expression: HGF: 1.5 | Log2 fold-change of gene expression: HIF1A: −1.8 | Log2 fold-change of gene expression: HPSE: −0.2 | Log2 fold-change of gene expression: Hspa12b: −3.5 | Log2 fold-change of gene expression: ID1: 0.3 | Log2 fold-change of gene expression: ID3: 0.5 | Log2 fold-change of gene expression: IFNA1: 1.9 | Log2 fold-change of gene expression: IFNB1: 2.1 | Log2 fold-change of gene expression: IFNG: −1.9 | Log2 fold-change of gene expression: IGF1: −0.2 | Log2 fold-change of gene expression: IL1B: 9.5 | Log2 fold-change of gene expression: IL6: 2.2 | Log2 fold-change of gene expression: IL8: 6.0 | Log2 fold-change of gene expression: ITGAV: −1.8 | Log2 fold-change of gene expression: ITGB3: −1.4 | Log2 fold-change of gene expression: Icam1: 0.6 | Log2 fold-change of gene expression: Icam2: 0.0 | Log2 fold-change of gene expression: JAG1: 0.3 | Log2 fold-change of gene expression: KDR: −2.1 | Log2 fold-change of gene expression: Kifc1: −0.1 | Log2 fold-change of gene expression: LAMAS5: −2.2 | Log2 fold-change of gene expression: LECT1: −0.2 | Log2 fold-change of gene expression: LEP: −0.2 | Log2 fold-change of gene expression: Lasts2: 0.3 | Log2 fold-change of gene expression: Lrrk1: −1.8 | Log2 fold-change of gene expression: MDK: −1.5 | Log2 fold-change of gene expression: MMP2: −0.6 | Log2 fold-change of gene expression: MMP9: −0.3 | Log2 fold-change of gene expression: MMP11: −0.2 | Log2 fold-change of gene expression: MRC2: −0.7 | Log2 fold-change of gene expression: Mmm2: −3.4 | Log2 fold-change of gene expression: Myo1b: −2.7 | Log2 fold-change of gene expression: NID1: −5.2 | Log2 fold-change of gene expression: NM023516: 0.6 | Log2 fold-change of gene expression: NRP1: −2.0 | Log2 fold-change of gene expression: NRP2: −3.2 | Log2 fold-change of gene expression: Notch4: −0.7 | Log2 fold-change of gene expression: Npr3: 0.5 | Log2 fold-change of gene expression: PALD: −1.7 | Log2 fold-change of gene expression: PDCD2: −0.9 | Log2 fold-change of gene expression: PDGFA: −0.9 | Log2 fold-change of gene expression: PECAM1: −2.5 | Log2 fold-change of gene expression: PGF: −1.6 | Log2 fold-change of gene expression: PLAU: 0.0 | Log2 fold-change of gene expression: PLG: −3.9 | Log2 fold-change of gene expression: PNMT: −0.4 | Log2 fold-change of gene expression: PROK2: 0.7 | Log2 fold-change of gene expression: PTGS1: 0.3 | Log2 fold-change of gene expression: PTPRCAP: 0.2 | Log2 fold-change of gene expression: Pltp: 0.9 | Log2 fold-change of gene expression: Ptprb: −2.6 | Log2 fold-change of gene expression: Ptprm: −1.4 | Log2 fold-change of gene expression: RAMP2: −4.4 | Log2 fold-change of gene expression: RASD2: −0.1 | Log2 fold-change of gene expression: Rasip1: −1.7 | Log2 fold-change of gene expression: S1PR1: −1.9 | Log2 fold-change of gene expression: SERPINF1: 1.5 | Log2 fold-change of gene expression: SPHK1: 1.2 | Log2 fold-change of gene expression: STAB1: −0.9 | Log2 fold-change of gene expression: Sdc4: 0.2 | Log2 fold-change of gene expression: Sdpr: 0.0 | Log2 fold-change of gene expression: Slc43a3: 0.0 | Log2 fold-change of gene expression: Slco2a1: −2.9 | Log2 fold-change of gene expression: TEK: 0.7 | Log2 fold-change of gene expression: TGFA: 5.3 | Log2 fold-change of gene expression: TGFB1: −1.3 | Log2 fold-change of gene expression: TGFB2: 1.6 | Log2 fold-change of gene expression: TGFBR1: 1.2 | Log2 fold-change of gene expression: THBS1: −0.6 | Log2 fold-change of gene expression: THBS2: 0.9 | Log2 fold-change of gene expression: THY1: −12.7 | Log2 fold-change of gene expression: TIMP1: −0.7 | Log2 fold-change of gene expression: TIMP2: −0.8 | Log2 fold-change of gene expression: TIMP3: −2.7 | Log2 fold-change of gene expression: TNF: 2.4 | Log2 fold-change of gene expression: TNS1: −0.9 | Log2 fold-change of gene expression: TNS3: 0.6 | Log2 fold-change of gene expression: TRA2B: −0.2 | Log2 fold-change of gene expression: TYMP: −1.1 | Log2 fold-change of gene expression: VEGFA: −0.3 | Log2 fold-change of gene expression: VEGFC: 2.0 | Log2 fold-change of gene expression: VGLL4: −3.5 | Log2 fold-change of gene expression: Vwf: −3.7 | Log2 fold-change of gene expression: copa: 0.0 | Log2 fold-change of gene expression: itbp4: −2.5 | Log2 fold-change of gene expression: ralb: −0.7 | Log2 fold-change of gene expression: stard9: 0.1 | Log2 fold-change of gene expression: B2M (1st listing (r49)): 2.8 | Log2 fold-change of gene expression: HPRT1 (1st listing (r50)): −0.4 | Log2 fold-change of gene expression: RPL13A (1st listing (r51)): −0.8 | Log2 fold-change of gene expression: GADPH (1st listing (r52)): −1.3 | Log2 fold-change of gene expression: ACTB (1st listing (r53)): −0.9 | Log2 fold-change of gene expression: PLXDC1 (1st listing (r74)): −3.2 | Log2 fold-change of gene expression: TNFAIP2 (1st listing (r91)): −0.6 | Log2 fold-change of gene expression: Robo4 (1st listing (r95)): −0.2 | Log2 fold-change of gene expression: 151516 (1st listing (r134)): 0.0 | Log2 fold-change of gene expression: TNFAIP2 (2nd listing (r92)): 2.7 | Log2 fold-change of gene expression: B2M (2nd listing (r97)): −1.2 | Log2 fold-change of gene expression: HPRT1 (2nd listing (r98)): 0.6 | Log2 fold-change of gene expression: RPL13A (2nd listing (r99)): 0.1 | Log2 fold-change of gene expression: GADPH (2nd listing (r100)): −0.1 | Log2 fold-change of gene expression: ACTB (2nd listing (r101)): −0.6 | Log2 fold-change of gene expression: PLXDC1 (2nd listing (r104)): −0.6 | Log2 fold-change of gene expression: 151516 (2nd listing (r139)): 0.0 | Log2 fold-change of gene expression: Robo4 (2nd listing (r188)): −0.3 | Log2 fold-change of gene expression: B2M (3rd listing (r145)): −0.7 | Log2 fold-change of gene expression: HPRT1 (3rd listing (r146)): 1.1 | Log2 fold-change of gene expression: RPL13A (3rd listing (r147)): 0.6 | Log2 fold-change of gene expression: GADPH (3rd listing (r148)): −0.5 | Log2 fold-change of gene expression: ACTB (3rd listing (r149)): −0.5 | Log2 fold-change of gene expression: B2M (4th listing (r193)): −0.8 | Log2 fold-change of gene expression: HPRT1 (4th listing (r194)): 0.4 | Log2 fold-change of gene expression: RPL13A (4th listing (r195)): 0.2 | Log2 fold-change of gene expression: GADPH (4th listing (r196)): −0.5 | Log2 fold-change of gene expression: ACTB (4th listing (r197)): −0.2

Source: patent US9504729B2, “Antiangiogenic small molecules and methods of use” (The United States of America, as represented by the …, priority 2009, dated 2016)
